Laboratory results published in publication PMC6511062, “Preclinical candidate for the treatment of visceral leishmaniasis that acts through proteasome inhibition” (Proceedings of the National Academy of Sciences of the …, 2019).

What was measured:
[1] = test system: bloodstream T. brucei; experiment: T. brucei stem-loop RNAi knock-down lines, drug sensitivity; type: cell-based, Trypanosoma brucei; details: for EC50: Trypanosoma brucei
Method: f. T. brucei RNAi constructs and cell lines
PCR primers (Table S6) were designed using RNAit28 to generate a 500-bp fragment conferring specific knockdown to Tb927.8.6620 (Table S7) and a 543-bp fragment of Tb927.9.15260 PCR fragments were cloned in the pRPaSLi construct for the generation of stem-loop dsRNA under the control of tetracycline as the trigger for RNAi28,29. Constructs were digested with AscI, EtOH-precipitated, and resuspended ([…]) in sterile water. 2T1 strains, containing a tetracycline repressor, were electroporated using program X-001 of the Nucleofector II electroporator (Amaxa, Cologne, Germany)30 following the addition of 5 µg of linearized DNA mixed in 100 µL of cytomix31. Transformants were cloned by limiting dilution under phleomycin (1 µg/mL) and hygromycin (2.5 µg/mL) selection. Puromycin susceptibility (1 µg/mL) was tested for full integration of the construct and expression of stem-loop RNAi was induced with concentrations of tetracycline ranging from […].
T. brucei RNA was isolated using an RNeasy purification kit (Qiagen) and cDNA-synthesized using a high capacity RNA-to-cDNA kit (Applied Biosystems). PCR primers (Table S6) were designed using the Premierbiosoft's Beacon Designer 6. qRT-PCRs […]
knock-down bloodstream trypanosomes. Transcript levels in trypanosomes where RNAi was induced by the addition of tetracycline (1 µg/mL, 24 h) were compared to wild-type (uninduced) levels. Relative levels of cDNA were normalized using the reference gene TERT (Tb927.11.10190, telomerase reverse transcriptase).
Compound 7, nM Compound 7, nM
Figure S4. Dose-response curves for compound 7 against cell lines where […]
(open circles) and induced (closed circles), respectively. […]
and 8.7 ± 0.3 nM for Tb927.8.6620RNAi uninduced (open circles) and induced (closed circles), respectively. Results are the means standard deviations of data from three […]

[2] = test system: TA1537; experiment: Ames test, strain TA1537
Method: oxidative metabolism system (S9-mix). The maximum concentration tested and […]
Compound 7a was tested in a bacterial mutation screening assay (Ames test) with Salmonella typhimurium TA1535, TA1537, TA98, TA100 and Escherichia coli WP2uvrA(pKM101) in the presence and absence of an exogenous mammalian […]
The bacterial mutation screening assay was a plate incorporation test carried out as previously described15 and according to current methodology. […]

[3] = test system: trypsin activity of the L. donovani proteasome; experiment: Proteasome activity assay, trypsin-like, L. donovani; type: biochemical, Leishmania donovani
Method: k. Proteasome activity assays
Compounds were dispensed into black 384-well assay plates (Greiner) by acoustic dispensing (LabCyte ECHO). For potency determinations, eleven-point, one in three dilution curves were generated, with a top concentration of 100 µM. Three proteasome activities were measured using a commercially available indirect enzyme-based luminescent assay kit (Promega) with Suc-LLVY-aminoluciferin, Z-LRR-aminoluciferin and Z-nLPnLD-aminoluciferin used as substrates for chymotrypsin-like, trypsin-like and caspase-like activities, respectively. In addition to proteasome samples: L. donovani and THP1-enriched proteasomes, commercially available human purified 26S proteasome (Boston Biochem) was also assessed. Proteasome final assay concentration were 0.025 mg/ml for L. donovani and THP1-enriched proteasomes and 1 nM for human purified 26S proteasome. Proteasome solution was added to the plates containing the compounds one hour before adding the proteasome substrate solution.
Substrate solution was then added and after 30 min of incubation luminescent signal was measured in an Envision reader (PerkinElmer).
Cultures of L. donovani axenic amastigotes were diluted to either 8 x 106 or 8 x 107 […]
value. […]
value) were used as negative and positive controls, respectively. […] Protein concentrations were determined by standard Bradford assays and Laemmli sample buffer was added to samples. […]

SMILES	EC50 ([1]; Tb927.8.6620 RNAi induced) [nM]	EC50 ([1]; Tb927.8.6620 RNAi uninduced) [nM]	EC50 ([1]; Tb927.9.15260 RNAi induced) [nM]	EC50 ([1]; Tb927.9.15260 RNAi uninduced) [nM]	resistance conferred by RNAi knockdown ([1]; knockdown of Tb927.9.15260 and Tb927.8.6620)	Mean revertants per plate ([2]; with S9-mix, dose level 50 per plate)	Mean revertants per plate ([2]; with S9-mix, dose level 150 per plate)	Mean revertants per plate ([2]; with S9-mix, dose level 500 per plate)	Mean revertants per plate ([2]; with S9-mix, dose level 1500 per plate)	Mean revertants per plate ([2]; with S9-mix, dose level 2500 per plate)	Mean revertants per plate ([2]; with S9-mix, dose level 5000 per plate)	Mean revertants per plate ([2]; without S9-mix, dose level 50 per plate)	Mean revertants per plate ([2]; without S9-mix, dose level 150 per plate)	Mean revertants per plate ([2]; without S9-mix, dose level 500 per plate)	Mean revertants per plate ([2]; without S9-mix, dose level 1500 per plate)	Mean revertants per plate ([2]; without S9-mix, dose level 2500 per plate)	Mean revertants per plate ([2]; without S9-mix, dose level 5000 per plate)	effect on trypsin activity [3]
O=C(Nc1ccc(F)c(-c2cn3nc(-c4ccccc4)cnc3n2)c1)N1CCCC1 [Compound 7]	8.7 ± 0.3	4.2 ± 0.2	8 ± 0.4	4.1 ± 0.2	approximately twofold	–	–	–	–	–	–	–	–	–	–	–	–	–
O=C(Nc1ccc(F)c(-c2ccn3c(N4CCOCC4)cnc3n2)c1)N1CCCC1 [Compound 8]	–	–	–	–	–	18.0	14.5	21.0	11.0	13.5	8.5	14.0	9.5	16.0	12.5	14.5	6.5	no effect
